In US9642819B2, “Low dosage serotonin 5-HT2A receptor agonist to suppress inflammation” (BOARD OF SUPERVISORS OF LOUISIANA STATE UNIVERSITY AND …, priority 2008, dated 2017):
Entries after “also recorded” stand apart in the source; their conditions may differ.

Key:
[1] = system: ICAM-1 gene expression; assay: TNF-α induced ICAM-1 gene expression in primary rat aortic smooth muscle cells; format: cell-based; conditions: for block of TNF-α induced ICAM1 gene expression at 1 nM: VCAM1 and IL6 identical
Experimental: (§1) RASM cells and treatment. Rat aortic smooth muscle (RASM) cells were isolated from adult 180 g male Sprague-Dawley rats and provided by the Cell and Molecular Core Facility in the Department of Pharmacology at LSUHSC-NO. Isolated RASM cells were grown in M-199 media containing 10% fetal bovine serum (Gibco), 100 units/mL penicillin, and 100 µg/mL streptomycin, and incubated at 37° C. in 5% CO2. Cells for all assays were used between passages 3 and 5. Prior to treatments, cells were grown in M-199 media with 10% fetal bovine serum (FBS) until 30-50% confluent. For most assays, cells were treated with (R)-DOI, or other drugs as indicated, at specific concentrations for 24 hours, followed by TNF-α (10 ng/ml) and (R)-DOI at the same pretreatment concentrations in fresh M-199 media. After another 24 hours, the cells were scraped, pelleted, and processed for RNA.
(§2) RNA isolation and Quantitative Realtime-PCR. RNA was extracted from cells using Illustra RNAspin Mini kits from GE Healthcare Life Sciences (Piscataway, N.J.) following protocols supplied by the manufacturer. First strand cDNA was generated using the ImProm-II cDNA synthesis kit (Promega) following the manufacturers protocols. Q-RT-PCR was performed using the ProbeLibrary system from Roche (Indianapolis, Ind.) in combination with the HotStart-IT probe qpcr master mix from USB Biological (Cleveland, Ohio) following manufactures protocols.
(§3) Primers were synthesized by IDT (Coralville, Iowa). ProbeLibrary probes from Roche were: U3, U74, U13, U106, U79 for 5-HT2AR, ICAM-1, VCAM-1, IL-6, and cyclophillin B, respectively. Quantitative determination of gene expression levels using a 2-step cycling protocol was performed on a MyIQ-5 Cycler (Bio-Rad, Hercules Calif.). Relative gene expression levels were calculated using the 2^[−ΔΔC(T)] method. Levels of all targets from the test samples were normalized to rat cyclophillin B expression.
(§4) To examine the effects of 5-HT2A receptor activation on TNF-α mediated proinflammatory gene expression, RASM cells were pretreated with (R)-DOI, a selective 5-HT2 receptor agonist, as described above. Dose-response curves were determined for the effects on ICAM-1, VCAM-1, and IL-6 gene expression for twelve different concentrations of (R)-DOI ranging from 0.1 pM to 100 nM, with each experiment repeated in triplicate. In FIGS. 1A-1C, the Y-axis represents a percent of TNF-α for the dose of (R)-DOI indicated on the X-axis.

[2] = system: Nitric Oxide Synthetase (NOS) activity; assay: NOS activity: nitrite levels in culture medium of RASM cells after TNF-α; format: cell-based, rat; conditions: 100 nM prior to 1 nM (R)-DOI
Experimental: Nitric Oxide Synthetase (NOS) Activity. NOS activity was determined by detection of nitrite levels in the cell culture medium following (R)-DOI/TNF-α treatments utilizing the Nitrate Detection kit from Assay Designs (Ann Arbor, Mich.) following the manufacturers protocols. Absorbances were detected at 539 nm on a […] SpectraMax M2 plate reader.
A key participant in inflammatory processes is NOS activity (Guzik et al., 2003). NOS activity can regulate NF-kB activation (Ckless et al., 2007), and cytokine pathway-activated NF-kB can transcriptionally regulate iNOS gene expression (Guo et al., 2007). To examine the effects of 5-HT2A receptor activation on this component of inflammatory mechanisms, primary RASM cells were used to examine the ability of 1 nM (R)-DOI to block TNF-α mediated increases in nitrite levels.
As an indicator of NOS activity, nitrite levels were measured in the cell culture media after treatments and are shown in FIG. 6 as % control. […] Pretreatment with 1 nM (R)-DOI for 24 hours blocked TNF-α mediated increases in nitrite accumulation (DOI+T).

[3] = system: nuclear translocation of p65; assay: Nuclear translocation of NF-κB subunit p65 in RASM cells; format: cell-based, rat; conditions: pretreatment of the 1 hour time point
Experimental: Nuclear Translocation of p65. RASM cells were grown in M-199 medium+10% FBS until 50% confluent in 8 well chamber slides. Cells were treated with 1 nM (R)-DOI for various times as indicated, and TNF-α (10 ng/ml; tumor necrosis factor alpha) added. Thirty minutes after TNF-α treatment, cells were fixed and processed with rabbit anti p65 primary and Alexafluor 488-conjugated goat secondary antibodies as described in Zerfaoui et al. (2008) (Zerfaoui et al., 2008). Fluorescent signal was visualized on a Leica DMRA2 fluorescent microscope.
Both ICAM-1 and VCAM-1 gene transcription during inflammatory processes is regulated by the transcription factor NF-κB (Collins et al., 1995). During this process, NF-κB must be activated, and then translocated from the cytoplasm to the nucleus, where it promotes gene transcription. To investigate whether 5-HT2A receptor stimulated inhibition of NF-κB activation and translocation might be a possible mechanism for blockade of proinflammatory gene expression changes, a series of immunohistochemical experiments were conducted examining p65 translocation in RASM cells. TNF-α treatment for 30 minutes caused the expected dramatic shift in localization of the p65 subunit of NF-κB from the cytoplasm to the nucleus (FIG. 7A). […]

[4] = system: ICAM-1, VCAM-1, and IL-6 gene expression; assay: TNF-α induced proinflammatory gene expression (ICAM-1, VCAM-1, IL-6) by Q-RT-PCR in RASM cells; format: cell-based, rat; conditions: for effect of receptor antagonist on the inhibitory effects of (R)-DOI: antagonist 100 nM 30 minutes prior to 1 nM (R)-DOI, then TNF-α
Experimental: as §1, §2, §3, §4

[5] = system: ICAM-1 gene expression; assay: TNF-α induced ICAM-1 gene expression in rat C6 glioma cells; format: cell-based; conditions: 1 nM and 50 nM prior to TNF-α
Experimental: Experiments were conducted to analyze for the effect of 5-HT2A receptor activation on proinflammatory marker expression in other cell types. Human neuroblastoma cells (SHSY5Y) and rat glioma cells (C6) can be obtained from the American Type Culture Collection (Manassas, Va.), but were provided Purdue University. The cells were grown in DMEM+10% FBS. DMEM was made and provided by the Cell and Molecular Core of the Mentoring in Cardiovascular Biology COBRE center at LSUHSC-NO. FBS was purchased from Invitrogen (Carlsbad, Calif.). Primary rat aortic endothelial cells were prepared fresh and provided by the Cell and Molecular Core of the Mentoring in Cardiovascular Biology COBRE center at LSUHSC-NO. Cells were tested at passages 3-4. Cells were grown in endothelial cell growth medium (Cell Applications, Inc.). Primary rat bronchoaveolar macrophage cells were obtained by lung lavage from rats and used at day 3 or 4 post plating in DMEM+10% FBS.
All treatments with 5-HT2A receptor agonists occurred 1 hour prior to the addition of TNF-alpha (10 ng/ml) or LPS (100 ng or 1 mg) depending on the experiment. All RNA isolations, cDNA synthesis, QPCR gene expression assays examining ICAM1, VCAM1, and IL6, and data analysis were performed as described above in Example 1, except the primers were different for the human cell experiment. […]

[6] = system: nitrite accumulation in C6 glioma cells; conditions: cocktail of TNF-α, read-out: IC50 for partial block of LPS and cytokine stimulated nitrite accumulation; cited from earlier work
[7] = target: 5-HT2A receptors (Homo sapiens, UniProt P28223); conditions: cited from earlier work
Chain of 5-HT2A receptors (P28223 whole entry): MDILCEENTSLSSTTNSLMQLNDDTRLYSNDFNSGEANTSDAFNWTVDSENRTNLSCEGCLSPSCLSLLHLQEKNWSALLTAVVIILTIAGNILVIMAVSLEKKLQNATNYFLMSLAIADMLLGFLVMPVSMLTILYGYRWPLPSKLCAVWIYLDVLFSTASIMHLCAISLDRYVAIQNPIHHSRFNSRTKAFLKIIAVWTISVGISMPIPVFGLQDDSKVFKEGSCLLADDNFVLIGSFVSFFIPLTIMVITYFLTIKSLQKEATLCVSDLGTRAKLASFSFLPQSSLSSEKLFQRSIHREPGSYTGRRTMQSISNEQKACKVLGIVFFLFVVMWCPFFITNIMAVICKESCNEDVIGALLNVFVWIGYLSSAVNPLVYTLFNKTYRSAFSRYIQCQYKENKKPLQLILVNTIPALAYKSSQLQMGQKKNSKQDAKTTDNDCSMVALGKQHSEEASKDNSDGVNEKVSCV

[8] = system: α1-adrenergic receptors; conditions: cited from earlier work
[9] = target: histamine H1 receptors (Homo sapiens, UniProt P35367); conditions: cited from earlier work
Chain of histamine H1 receptors (P35367 whole entry): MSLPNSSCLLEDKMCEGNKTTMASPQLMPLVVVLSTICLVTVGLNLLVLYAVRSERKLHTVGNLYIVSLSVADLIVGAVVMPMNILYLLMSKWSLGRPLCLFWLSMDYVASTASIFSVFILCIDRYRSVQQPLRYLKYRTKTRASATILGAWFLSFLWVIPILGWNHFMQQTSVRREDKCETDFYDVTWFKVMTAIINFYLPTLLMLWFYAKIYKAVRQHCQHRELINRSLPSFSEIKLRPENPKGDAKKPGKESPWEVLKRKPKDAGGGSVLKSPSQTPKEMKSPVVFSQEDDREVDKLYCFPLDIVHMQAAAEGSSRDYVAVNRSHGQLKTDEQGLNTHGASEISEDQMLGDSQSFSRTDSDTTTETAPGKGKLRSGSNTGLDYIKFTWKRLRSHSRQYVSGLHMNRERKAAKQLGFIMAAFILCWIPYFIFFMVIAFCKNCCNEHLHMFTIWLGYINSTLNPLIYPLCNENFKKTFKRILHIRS

In the case of `COc1ccc2c(c[n+](C)c3c4cc5c(cc4ccc23)OCO5)c1OC.[Cl-]` [chelerythrine, 1,2-Dimethoxy-12-methyl[1,3]benzodioxolo[5,6-c]phenanth ridinium chloride, reference compound], the “effect of kinase inhibitor on (R)-DOI inhibition of TNF-α induced ICAM-1 expression” value ([1]; inhibitor 100 nM 30 minutes prior to 1 nM (R)-DOI, then TNF-α) is reported as “blocked the effects of TNF-α-induced gene expression; also recorded: completely inhibited”, the “effect of PKC inhibitor on (R)-DOI block of nitrite accumulation” value [2] is reported as “completely inhibited” and the “effect of PKC inhibitor on (R)-DOI induced inhibition of p65 translocation” value [3] is reported as “blocked”.
In the case of `COc1cccc([C@H](O)C2CCN(CCc3ccc(F)cc3)CC2)c1OC` [M100907, R(+)-a-(2,3-dimeth-oxyphenyl)-1-[2-(4-fluorophenylethyl)]-4-pipeddine-methanol, reference compound], the “effect of receptor antagonist on the inhibitory effects of (R)-DOI” value (shortened to “effect … on the inhibitory effects of (R)-DOI”) [4] is reported as “blocked the effects of (R)-DOI” and the “effect … on the inhibitory effects of (R)-DOI” value ([4]; listed as MDL100907) is reported as “completely blocked”.
For `CC1CC(C)N1C(=O)C1C=C2c3cccc4[nH]cc(c34)CC2N(C)C1` (stereo not drawn) [LA-SS-Az, (2′S,4′S)-(+)-9,10-Didehydro-6-methylergoline-8β-(trans-2,4-dimethylazetidide)], the “induced gene expression blocked at 1 nM” value ([1]; 1 nM pretreatment) was “about 50%”, the “block of TNF-α induced ICAM1 gene expression at 1 nM” value ([1]; 1 nM pretreatment) was “moderately effective” and the “block of TNF-α induced ICAM1 gene expression at 50 nM” value ([1]; 50 nM pretreatment) was “effectively blocked”. For the same compound, the “effect on ICAM-1 gene expression in rat glioma cells” value [5] was “blocked”.
For `COc1cc(OC)c(C(=O)CCCCN2CCC3(CC2)NC(=O)NC3=O)cc1NS(=O)(=O)c1ccc(C(F)(F)F)cc1.Cl` [RS102221, reference compound], the “effect … on the inhibitory effects of (R)-DOI” value ([4]; hydrochloride) was “did not block; also recorded: had no effect”.
For `CCN(CC)C(=O)[C@@H]1C=C2c3cccc4[nH]cc(c34)C[C@H]2N(C)C1` [LSD, Lysergic acid diethylamide, reference compound], the “block of TNF-α induced ICAM1 gene expression at 1 nM” value ([1]; 1 nM pretreatment) was “weak to moderate effects” and the “TNF-α effect blocked at 50 nM” value ([1]; 50 nM pretreatment) was “about 85%”.
For `COc1cc(CC(C)N)c(OC)cc1I` (racemic) [DOI, 1-(2,5-dimethoxy-4-iodophenyl)-2-aminopropane], the IC50 [6] is given as 8 ± 3 nM.
For `Cc1cc(NC(=O)Nc2ccc3c(ccn3C)c2)sn1` [SB204741, N-(1-Methyl-1H-indolyl-5-yl)-N″-(3-methyl-5-isothiazolyl)urea, reference compound], the “effect … on the inhibitory effects of (R)-DOI” value [4] was “did not block; also recorded: had no effect”.
In the case of `O=C(c1ccc(F)cc1)C1CCN(CCn2c(=O)[nH]c3ccccc3c2=O)CC1` [ketanserin], the “selectivity for 5-HT2A receptors over 5-HT2C receptors” value [7] is given as roughly 20 fold, the “affinity for α1-adrenergic receptors” value [8] is given as “high affinity” and the “potency at blocking histamine H1 receptors” value [9] is given as “equipotent”.
In the case of `CCCCCCCCCCCCCC(=O)O[C@@H]1[C@@H](C)[C@@]2(O)[C@@H](C=C(CO)C[C@]3(O)C(=O)C(C)=C[C@@H]23)[C@@H]2C(C)(C)[C@]12OC(C)=O` [PMA, Phorbol 12-myristate 13-acetate, reference compound], the “effect on TNF-α mediated expression in the absence of (R)-DOI” value ([4]; 100 nM prior to TNF-α, ICAM1, VCAM1, IL6) is reported as “blocks the effects of TNF-α; also recorded: completely block”.
